One assay relates to BEN. The experiment in a line: relative viability (nuclei count vs DMSO), 5 days (fraction); higher = more cells survive. The note with it: first compound 6.325 µM. The essentials:
(§1)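 Dosing by pin tool came one day after lung cancer cell lines were seeded in 1536-well plates, using either one drug or a fixed anchor-drug dose plus five library-drug doses (not always all listed) in √10 steps. After 5 days, nuclei were counted on 4× images. Relative viability is treated-well nuclei count divided by vehicle-well nuclei count, and values are medians of duplicate plates.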
As for `COCC1(CO)C(=O)C2CCN1CC2` (stereo not drawn) [PRIMA-1MET] + CC(=O)Nc1cccc(-n2c(=O)n(C3CC3)c(=O)c3c(Nc4ccc(I)cc4F)n(C)c(=O)c(C)c32)c1 [Trametinib] (partner 0.02 µM), the relative viability is 1.03.

`COCC1(CO)C(=O)C2CCN1CC2` (stereo not drawn) [PRIMA-1MET] + Nc1ncn([C@H]2C[C@H](O)[C@@H](CO)O2)c(=O)n1 [Decitabine] (partner 2 µM) showed a relative viability of 0.652.

Compound `COCC1(CO)C(=O)C2CCN1CC2` (stereo not drawn) [PRIMA-1MET] + O=C(c1cc(Cc2n[nH]c(=O)c3ccccc23)ccc1F)N1CCN(C(=O)C2CC2)CC1 [Olaparib] (partner 8 µM) displayed a relative viability of 1.12.

The same assay, now with this note: first compound 20 µM.
Take `COCC1(CO)C(=O)C2CCN1CC2` (stereo not drawn) [PRIMA-1MET] + N=C(N)NC(=N)NCCc1ccccc1 [Phenformin] (partner 250 µM): the relative viability worked out at 0.224.

In turn, `COCC1(CO)C(=O)C2CCN1CC2` (stereo not drawn) [PRIMA-1MET] + Nc1nc2[nH]cc(CCc3ccc(C(=O)N[C@@H](CCC(=O)O)C(=O)O)cc3)c2c(=O)[nH]1 [Pemetrexed] (partner 0.2 µM) came in with a relative viability of 0.834.

Compound `COCC1(CO)C(=O)C2CCN1CC2` (stereo not drawn) [PRIMA-1MET] + CC(=O)Nc1cccc(-n2c(=O)n(C3CC3)c(=O)c3c(Nc4ccc(I)cc4F)n(C)c(=O)c(C)c32)c1 [Trametinib] (partner 0.02 µM) came in with a relative viability of 1.07.

`COCC1(CO)C(=O)C2CCN1CC2` (stereo not drawn) [PRIMA-1MET] + Nc1ncn([C@H]2C[C@H](O)[C@@H](CO)O2)c(=O)n1 [Decitabine] (partner 2 µM): the relative viability is 0.632.

Consider `COCC1(CO)C(=O)C2CCN1CC2` (stereo not drawn) [PRIMA-1MET] + O=C(c1cc(Cc2n[nH]c(=O)c3ccccc23)ccc1F)N1CCN(C(=O)C2CC2)CC1 [Olaparib] (partner 8 µM), for which the relative viability was found to be 1.07.

Another assay concerns HCC-44. The description is as above. The note with it: first compound 0.2 µM. In short, it runs like this:
as §1
In turn, `COCC1(CO)C(=O)C2CCN1CC2` (stereo not drawn) [PRIMA-1MET] + N=C(N)NC(=N)NCCc1ccccc1 [Phenformin] (partner 250 µM) yielded a relative viability of 0.265.

For `COCC1(CO)C(=O)C2CCN1CC2` (stereo not drawn) [PRIMA-1MET] + Nc1nc2[nH]cc(CCc3ccc(C(=O)N[C@@H](CCC(=O)O)C(=O)O)cc3)c2c(=O)[nH]1 [Pemetrexed] (partner 0.2 µM), the relative viability was found to be 0.748.

In turn, `COCC1(CO)C(=O)C2CCN1CC2` (stereo not drawn) [PRIMA-1MET] + CC(=O)Nc1cccc(-n2c(=O)n(C3CC3)c(=O)c3c(Nc4ccc(I)cc4F)n(C)c(=O)c(C)c32)c1 [Trametinib] (partner 0.02 µM) gave a relative viability of 1.01.

Compound `COCC1(CO)C(=O)C2CCN1CC2` (stereo not drawn) [PRIMA-1MET] + Nc1ncn([C@H]2C[C@H](O)[C@@H](CO)O2)c(=O)n1 [Decitabine] (partner 2 µM) displayed a relative viability of 1.04.

`COCC1(CO)C(=O)C2CCN1CC2` (stereo not drawn) [PRIMA-1MET] + O=C(c1cc(Cc2n[nH]c(=O)c3ccccc23)ccc1F)N1CCN(C(=O)C2CC2)CC1 [Olaparib] (partner 8 µM): the relative viability is 1.06.

The same assay, now with this note: first compound 0.6325 µM.
Compound `COCC1(CO)C(=O)C2CCN1CC2` (stereo not drawn) [PRIMA-1MET] + N=C(N)NC(=N)NCCc1ccccc1 [Phenformin] (partner 250 µM) had a relative viability of 0.137.

With `COCC1(CO)C(=O)C2CCN1CC2` (stereo not drawn) [PRIMA-1MET] + Nc1nc2[nH]cc(CCc3ccc(C(=O)N[C@@H](CCC(=O)O)C(=O)O)cc3)c2c(=O)[nH]1 [Pemetrexed] (partner 0.2 µM), the relative viability was determined as 0.641.

With `COCC1(CO)C(=O)C2CCN1CC2` (stereo not drawn) [PRIMA-1MET] + CC(=O)Nc1cccc(-n2c(=O)n(C3CC3)c(=O)c3c(Nc4ccc(I)cc4F)n(C)c(=O)c(C)c32)c1 [Trametinib] (partner 0.02 µM), the relative viability amounted to 0.951.

`COCC1(CO)C(=O)C2CCN1CC2` (stereo not drawn) [PRIMA-1MET] + Nc1ncn([C@H]2C[C@H](O)[C@@H](CO)O2)c(=O)n1 [Decitabine] (partner 2 µM) yielded a relative viability of 0.595.

In turn, `COCC1(CO)C(=O)C2CCN1CC2` (stereo not drawn) [PRIMA-1MET] + O=C(c1cc(Cc2n[nH]c(=O)c3ccccc23)ccc1F)N1CCN(C(=O)C2CC2)CC1 [Olaparib] (partner 8 µM) had a relative viability of 0.969.

The assay is the same for the next values; noted with them: first compound 2 µM.
`COCC1(CO)C(=O)C2CCN1CC2` (stereo not drawn) [PRIMA-1MET] + N=C(N)NC(=N)NCCc1ccccc1 [Phenformin] (partner 250 µM): the relative viability came to 0.244.

Regarding `COCC1(CO)C(=O)C2CCN1CC2` (stereo not drawn) [PRIMA-1MET] + Nc1nc2[nH]cc(CCc3ccc(C(=O)N[C@@H](CCC(=O)O)C(=O)O)cc3)c2c(=O)[nH]1 [Pemetrexed] (partner 0.2 µM), the relative viability is 0.681.

Compound `COCC1(CO)C(=O)C2CCN1CC2` (stereo not drawn) [PRIMA-1MET] + CC(=O)Nc1cccc(-n2c(=O)n(C3CC3)c(=O)c3c(Nc4ccc(I)cc4F)n(C)c(=O)c(C)c32)c1 [Trametinib] (partner 0.02 µM) registered a relative viability of 1.12.

Compound `COCC1(CO)C(=O)C2CCN1CC2` (stereo not drawn) [PRIMA-1MET] + Nc1ncn([C@H]2C[C@H](O)[C@@H](CO)O2)c(=O)n1 [Decitabine] (partner 2 µM) showed a relative viability of 0.998.

Compound `COCC1(CO)C(=O)C2CCN1CC2` (stereo not drawn) [PRIMA-1MET] + O=C(c1cc(Cc2n[nH]c(=O)c3ccccc23)ccc1F)N1CCN(C(=O)C2CC2)CC1 [Olaparib] (partner 8 µM) had a relative viability of 1.12.

The same assay, now with this note: first compound 6.325 µM.
`COCC1(CO)C(=O)C2CCN1CC2` (stereo not drawn) [PRIMA-1MET] + N=C(N)NC(=N)NCCc1ccccc1 [Phenformin] (partner 250 µM) had a relative viability of 0.2.

Regarding `COCC1(CO)C(=O)C2CCN1CC2` (stereo not drawn) [PRIMA-1MET] + Nc1nc2[nH]cc(CCc3ccc(C(=O)N[C@@H](CCC(=O)O)C(=O)O)cc3)c2c(=O)[nH]1 [Pemetrexed] (partner 0.2 µM), the relative viability came to 0.676.

Compound `COCC1(CO)C(=O)C2CCN1CC2` (stereo not drawn) [PRIMA-1MET] + CC(=O)Nc1cccc(-n2c(=O)n(C3CC3)c(=O)c3c(Nc4ccc(I)cc4F)n(C)c(=O)c(C)c32)c1 [Trametinib] (partner 0.02 µM) gave a relative viability of 1.07.

The compound `COCC1(CO)C(=O)C2CCN1CC2` (stereo not drawn) [PRIMA-1MET] + Nc1ncn([C@H]2C[C@H](O)[C@@H](CO)O2)c(=O)n1 [Decitabine] (partner 2 µM) gave a relative viability of 0.942.

Consider `COCC1(CO)C(=O)C2CCN1CC2` (stereo not drawn) [PRIMA-1MET] + O=C(c1cc(Cc2n[nH]c(=O)c3ccccc23)ccc1F)N1CCN(C(=O)C2CC2)CC1 [Olaparib] (partner 8 µM), for which the relative viability is 0.969.

The same assay, now with this note: first compound 20 µM.
For the compound `COCC1(CO)C(=O)C2CCN1CC2` (stereo not drawn) [PRIMA-1MET] + N=C(N)NC(=N)NCCc1ccccc1 [Phenformin] (partner 250 µM), the relative viability worked out at 0.236.

The compound `COCC1(CO)C(=O)C2CCN1CC2` (stereo not drawn) [PRIMA-1MET] + Nc1nc2[nH]cc(CCc3ccc(C(=O)N[C@@H](CCC(=O)O)C(=O)O)cc3)c2c(=O)[nH]1 [Pemetrexed] (partner 0.2 µM) yielded a relative viability of 0.607.

In turn, `COCC1(CO)C(=O)C2CCN1CC2` (stereo not drawn) [PRIMA-1MET] + CC(=O)Nc1cccc(-n2c(=O)n(C3CC3)c(=O)c3c(Nc4ccc(I)cc4F)n(C)c(=O)c(C)c32)c1 [Trametinib] (partner 0.02 µM) had a relative viability of 1.03.

`COCC1(CO)C(=O)C2CCN1CC2` (stereo not drawn) [PRIMA-1MET] + Nc1ncn([C@H]2C[C@H](O)[C@@H](CO)O2)c(=O)n1 [Decitabine] (partner 2 µM) displayed a relative viability of 0.93.

Turning to `COCC1(CO)C(=O)C2CCN1CC2` (stereo not drawn) [PRIMA-1MET] + O=C(c1cc(Cc2n[nH]c(=O)c3ccccc23)ccc1F)N1CCN(C(=O)C2CC2)CC1 [Olaparib] (partner 8 µM), the relative viability was 0.945.

The values are drawn from the supplement of paper PMC10307832.
